From article PMC12589438 (Communications Chemistry, 2025)
Positions of bridges follow the written chain, without caps; N, C: chain ends. Non-standard residues stand in square brackets, D forms with d. Residues, ends and D or L forms follow the SMILES beside them. *: point of attachment. Benzoyl(4-F) = O=C(c1ccc(F)cc1)*; Mpa = O=C(O)CCS

Key:
physchem = settings: buffer
Method: (§3) Tested peptides were dissolved (1 mM) in 100 mM sodium citrate buffer (pH 3), 100 mM potassium phosphate buffer (pH 7), or 100 mM sodium carbonate buffer (pH 9).

in vitro = settings: rat, serum
Method: One hundred and fifty microliters of rat or human serum (Sigma Aldrich) was preheated at 37 °C for 30 min. 25 μL of the tested peptide sample (0.3 M in 0.1 M potassium phosphate buffer at pH 7.2) or 0.1 M potassium phosphate buffer pH 7.2 (for blank sample) were added to the serum and incubated at 37 °C. […] Sampled were centrifugated at 20,000 × g for 10 min, and the supernatant analysed via LC-MS (column: Agilent Technology, Zorbex C18, 2.1 × 100 mm, 5 μm, 300 Å. Elution method: 0–50% B in 50 min, 0.25 mL/min. Solvent A: 0.1% TFA in H2O. Solvent B: 0.1% TFA in ACN). Each peptide sample was analysed in three independent experiments, and data analysis was performed using Prism Version 7, a nonlinear fit one-phase decay model.

human V1aR = target: T1, human V1aR (Homo sapiens, UniProt P37288); experiment: FLIPR calcium mobilisation assay, hV1aR; format: cell-based; settings: COS-1 cells transfected with hV1aR; n = 3, mean ± SEM
T1 construct: expressed in transfected cells; host or cells: COS-1
T1 sequence (P37288 whole entry): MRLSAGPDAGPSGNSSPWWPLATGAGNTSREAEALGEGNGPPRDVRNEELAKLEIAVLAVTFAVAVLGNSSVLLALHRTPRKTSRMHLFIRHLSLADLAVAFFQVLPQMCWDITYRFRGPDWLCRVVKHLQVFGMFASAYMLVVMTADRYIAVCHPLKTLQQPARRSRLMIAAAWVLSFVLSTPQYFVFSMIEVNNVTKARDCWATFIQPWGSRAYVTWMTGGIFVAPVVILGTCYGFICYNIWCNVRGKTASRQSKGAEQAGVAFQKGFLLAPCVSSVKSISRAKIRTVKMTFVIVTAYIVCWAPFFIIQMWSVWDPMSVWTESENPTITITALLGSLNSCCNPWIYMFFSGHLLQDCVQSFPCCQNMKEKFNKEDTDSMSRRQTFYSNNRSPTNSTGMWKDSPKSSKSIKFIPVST
Method: (§1) OTR belongs to the rhodopsin-type (class I) G protein-coupled receptor (GPCR) family and is closely related to the vasopressin (VP) receptor (VPR) family (V1aR, V1bR, V2R). […] OTR, V1aR, and V1bR are expressed in the periphery and in CNS, while V2R is primarily expressed in the kidneys and was deemed not in scope for our exploration. The EC50 of our ligands was measured using a Fluorescent Imaging Plate Reader (FLIPR) calcium mobilisation assay (Fig. 2C)[34].
(§2) COS-1 cells were cultured in Dulbecco’s modified Eagle’s medium (DMEM) and 5% foetal bovine serum (FBS). […] Fluo-4-AM [4-(6-acetoxymethoxy-2,7-difluoro-3-oxo-9-xanthenyl)-4′-methyl-2,2′-(ethylenedioxy)dianilineN,N,N′,N′-tetraacetic acid tetrakis(acetoxymethyl) ester] ([…]) in PSS containing 0.3% fatty acid-free BSA was then added, and the cells incubated for 30 min at 37 °C. The cells were then transferred to a […] The baseline fluorescence was set to a minimum of 1000 arbitrary fluorescence units. The baseline fluorescence was read 10 times, followed by the addition of test compounds and fluorescence measurement every second for 180 s. The test compounds were added as an 8-point gradient in triplicate, with the highest concentration of 10 μM in PSS. To convert the raw fluorescence data to DF/F, the baseline fluorescence readings were subtracted from subsequent time points, and the resulting value was divided by the baseline fluorescence values.

[1] = Hydrophobicity assessment by analytical C18-RP-HPLC; format: physicochemical; settings: 0–40% B
Method: To identify the most OT-like radiotracer, we first assessed the hydrophobicity of all compounds by comparing their retention times with OT on an analytical C18-RP-HPLC column (Fig. 2A).
Fig. 2 Pharmacological characterisation of OT analogues. […] B Metabolic stability of OT analogues in rat and human serum. Each time point was analysed in three independent experiments (n = 3 technical triplicates, mean ± SEM). C Potencies (EC50) values for OT and analogues at the human OTR, V1aR, and V1bR, determined by a FLIPR calcium mobilisation assay (n = 3 technical triplicates, mean ± SEM). […]; similar hydrophobicity with HPLC Rt ± 20% from OT; buffer t1/2 > 30 min at pH 7; […]; EC50 at OTR < 50 nM; EC50 at V1aR and V1bR < 5×EC50(OTR) (n.a.: not assessed).

human OTR = target: T2, human OTR (Homo sapiens, UniProt P30559); experiment: FLIPR calcium mobilisation assay, hOTR; format: cell-based; settings: for EC50: COS-1 cells transfected with hOTR, n = 3, mean ± SEM
T2 construct: expressed in transfected cells; host or cells: COS-1
T2 sequence (P30559 1-389): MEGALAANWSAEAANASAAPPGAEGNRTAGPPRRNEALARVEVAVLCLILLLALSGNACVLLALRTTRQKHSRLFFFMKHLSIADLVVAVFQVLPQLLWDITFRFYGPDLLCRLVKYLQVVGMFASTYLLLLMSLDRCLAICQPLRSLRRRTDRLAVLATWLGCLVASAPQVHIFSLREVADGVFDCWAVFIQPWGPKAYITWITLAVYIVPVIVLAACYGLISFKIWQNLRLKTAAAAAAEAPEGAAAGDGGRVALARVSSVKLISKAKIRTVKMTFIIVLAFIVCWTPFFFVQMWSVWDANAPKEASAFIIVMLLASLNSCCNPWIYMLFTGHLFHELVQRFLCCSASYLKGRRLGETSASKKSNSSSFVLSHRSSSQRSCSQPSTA
Method: as §1
as §2, with “°C.” for “°C. The cells were then transferred to a”

human V1bR = target: T3, human V1bR (Homo sapiens, UniProt P47901); experiment: FLIPR calcium mobilisation assay, hV1bR; format: cell-based; settings: COS-1 cells transfected with hV1bR; n = 3, mean ± SEM
T3 construct: expressed in transfected cells; host or cells: COS-1
T3 sequence (P47901 1-424): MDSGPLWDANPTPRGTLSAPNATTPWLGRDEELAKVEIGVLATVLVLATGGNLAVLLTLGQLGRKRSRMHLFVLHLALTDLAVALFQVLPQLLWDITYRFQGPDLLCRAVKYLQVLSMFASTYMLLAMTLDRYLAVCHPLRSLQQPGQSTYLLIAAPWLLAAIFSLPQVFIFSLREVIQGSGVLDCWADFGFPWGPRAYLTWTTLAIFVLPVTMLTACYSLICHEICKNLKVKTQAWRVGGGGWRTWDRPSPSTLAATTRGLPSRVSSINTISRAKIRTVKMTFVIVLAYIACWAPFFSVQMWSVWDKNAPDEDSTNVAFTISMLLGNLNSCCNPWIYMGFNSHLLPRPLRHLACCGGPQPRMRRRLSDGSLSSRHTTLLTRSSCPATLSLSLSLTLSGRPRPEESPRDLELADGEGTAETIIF
Method: as §1
as §2, with “°C.” for “°C. The cells were then transferred to a”

[2] = pH 7
Method: as §3

[3] = Stability test at different pH (buffered solutions); settings: buffer
Method: as §3

[4] = pH 3, t1/2 pH 3.0, 100 mM sodium citrate buffer pH 3, 10 h
[5] = pH 7, t1/2 pH 7.0, 100 mM potassium phosphate buffer pH 7, 10 h
[6] = pH 9, t1/2 pH 9.0, 100 mM sodium carbonate buffer pH 9, 10 h

| half-life at 1 mM (physchem; pH 3) [h] | half-life at 1 mM (physchem; pH 7) [h] | half-life at 1 mM (physchem; pH 9) [h] | half-life at 0.043 M (in vitro) [h] | EC50 (human V1aR) [nM] | EC50 (human OTR) [nM] | fold less potent than OT at OTR (human OTR; EC50 compared with OT) | EC50 (human V1bR) [nM] | fold more potent than OT at OTR (human OTR; EC50 compared with OT) | degradation within 10 h [2] [%] | Compound | hydrophobicity compared with OT (retention on C18-RP-HPLC) [1] | half-life at 1 mM [3, 4] [h] | half-life at 1 mM ([3]; pH 7, t1/2 at pH 7, pH 7, as stated in main text) [h] | half-life at 1 mM [3, 5] [h] | half-life at 1 mM ([3]; pH 9, t1/2 at pH 9, pH 9, as stated in main text) [h] | half-life at 1 mM [3, 6] [h] |
| --- | --- | --- | --- | --- | --- | --- | --- | --- | --- | --- | --- | --- | --- | --- | --- | --- |
| > 10 | > 10 | > 10 | 47 ± 0.05 | – | – | – | – | – | – | CC[C@H](C)[C@@H]1NC(=O)[C@H](Cc2ccc(O)cc2)NC(=O)[C@@H](N)CSSC[C@@H](C(=O)N2CCC[C@H]2C(=O)N[C@@H](CC(C)C)C(=O)NCC(N)=O)NC(=O)[C@H](CC(N)=O)NC(=O)[C@H](CCC(N)=O)NC1=O [OT, oxytocin, reference compound] | – | – | – | – | – | – |
| > 10 | > 10 | > 10 | 18 ± 0.04 | 331.6 ± 0.4 | 42.1 ± 1.4 | ~ 4 fold | 354 ± 5.7 | – | – | CC[C@H](C)[C@@H]1NC(=O)[C@H](Cc2ccc(O)cc2)NC(=O)[C@@H](N)CSSC[C@@H](C(=O)N2CCC[C@H]2C(=O)N[C@@H](CCCCNC(=O)CON=Cc2ccc(F)cc2)C(=O)NCC(N)=O)NC(=O)[C@H](CC(N)=O)NC(=O)[C@H](CCC(N)=O)NC1=O [OTK^8[Aoa-FBA]] | significantly more hydrophobic | – | – | – | – | – |
| > 10 | > 10 | > 10 | 13 ± 0.11 | 115 ± 81 | 5.25 ± 5.1 | – | 54 ± 31 | ~ 2 fold | 25 | CC[C@H](C)[C@@H]1NC(=O)[C@H](Cc2ccc(O)cc2)NC(=O)[C@@H](N)CSSC[C@@H](C(=O)N2CCC[C@H]2C(=O)N[C@@H](CCCCNC(=O)CON=C[C@H](F)[C@@H](O)[C@H](O)[C@H](O)CO)C(=O)NCC(N)=O)NC(=O)[C@H](CC(N)=O)NC(=O)[C@H](CCC(N)=O)NC1=O [OTK^8[Aoa-FDG]] | – | – | – | – | – | – |
| – | – | – | – | – | – | – | – | – | – | CC[C@H](C)[C@@H]1NC(=O)[C@H](Cc2ccc(O)cc2)NC(=O)CCSSC[C@@H](C(=O)N2CCC[C@H]2C(=O)N[C@@H](CCCCN(CCS(=O)(=O)F)CCS(=O)(=O)F)C(=O)NCC(N)=O)NC(=O)[C@H](CC(N)=O)NC(=O)[C@H](CCC(N)=O)NC1=O [dOTK^8[ESF2]] | significantly more hydrophobic | 3.6 | < 0.5 | < 1 | < 0.5 | < 1 |
| – | – | – | – | – | – | – | – | – | – | CC[C@H](C)[C@@H]1NC(=O)[C@H](Cc2ccc(O)cc2)NC(=O)CCSSC[C@@H](C(=O)N2CCC[C@H]2C(=O)N[C@@H](CCCCNCCS(=O)(=O)F)C(=O)NCC(N)=O)NC(=O)[C@H](CC(N)=O)NC(=O)[C@H](CCC(N)=O)NC1=O [dOTK^8[ESF]] | – | > 10 | – | > 10 | – | > 10 |
| > 10 | > 10 | > 10 | > 48 | 334.3 ± 0.6 | 46.8 ± 1.5 | ~ 4 fold | 46 ± 3.6 | – | 25 | CC[C@H](C)[C@@H]1NC(=O)[C@H](Cc2ccc(O)cc2)NC(=O)CCSSC[C@@H](C(=O)N2CCC[C@H]2C(=O)N[C@@H](CCCCNC(=O)c2ccc(F)cc2)C(=O)NCC(N)=O)NC(=O)[C@H](CC(N)=O)NC(=O)[C@H](CCC(N)=O)NC1=O [dOTK^8[SFB]] ([Mpa]YIQNCPK(Benzoyl(4-F))G-NH2; disulfide 1-6) | – | – | – | – | – | – |
